Test results published in publication PMC9090415, “Discovery of small molecule inhibitors of Plasmodium falciparum apicoplast DNA polymerase” (Journal of Enzyme Inhibition and Medicinal Chemistry, 2022).

Target: P. falciparum apicoplast DNA polymerase (Pf-apPOL) (Plasmodium falciparum, UniProt Q8ILY1)
Assay: Fluorescence-based high-throughput DNA polymerase assay (molecular beacon), primary screen and dose-response
Format: biochemical
Method in brief: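 Single-point screening used 10 µM compound with 20 nM polymerase, 20 nM hairpin substrate and 6 µM dNTPs for 90 min at 25 °C. Confirmatory titrations (2.5–80 µM) followed fluorescence at three times, and IC50 was derived from a fit including a cooperativity term n.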

P. falciparum apicoplast DNA polymerase (Pf-apPOL), sequence (Q8ILY1 entry or part of it): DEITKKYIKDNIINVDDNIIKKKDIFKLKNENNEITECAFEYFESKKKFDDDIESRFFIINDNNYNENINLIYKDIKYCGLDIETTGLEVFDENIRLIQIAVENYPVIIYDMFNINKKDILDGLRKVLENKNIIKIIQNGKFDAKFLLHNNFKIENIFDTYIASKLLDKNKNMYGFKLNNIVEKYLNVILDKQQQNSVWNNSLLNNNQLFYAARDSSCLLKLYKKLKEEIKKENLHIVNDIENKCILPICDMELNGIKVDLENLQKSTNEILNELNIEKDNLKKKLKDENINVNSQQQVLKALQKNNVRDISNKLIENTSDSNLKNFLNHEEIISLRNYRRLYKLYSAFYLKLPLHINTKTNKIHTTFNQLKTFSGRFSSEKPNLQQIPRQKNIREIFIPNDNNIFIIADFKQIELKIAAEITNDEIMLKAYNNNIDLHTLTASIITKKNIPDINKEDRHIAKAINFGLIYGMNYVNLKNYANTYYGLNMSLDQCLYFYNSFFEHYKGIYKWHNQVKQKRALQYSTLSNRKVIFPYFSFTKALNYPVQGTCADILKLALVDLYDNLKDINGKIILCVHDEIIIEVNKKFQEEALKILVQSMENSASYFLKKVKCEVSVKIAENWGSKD

COc1ccccc1CCC(=O)N1CCc2c(nc3cc(-c4ccccc4)[nH]n3c2=O)C1 [Molecule 7, COc1ccccc1CCC(=O)N1CCc2c(C1)nc1n(c2=O)[nH]c(c1)c1ccccc1]
DNA Pol ('DNA Pol'; screening value, unit not given; 90 min, 10 µM): 40 | % inhibition Apo pol 10' (DRC-1; 10'; concentration 2.5): 2.75% | % inhibition Apo pol 10' (DRC-1; 10'; concentration 5): 18% | % inhibition Apo pol 10' (DRC-1; 10'; concentration 10): 67% | % inhibition Apo pol 10' (DRC-1; 10'; concentration 20): 82% | % inhibition Apo pol 10' (DRC-1; 10'; concentration 40): 78% | % inhibition Apo pol 10' (DRC-1; 10'; concentration 80): 59% | % inhibition Apol 90' (DRC-1; 90'; concentration 2.5): 0.0541% | % inhibition Apol 90' (DRC-1; 90'; concentration 5): 9% | % inhibition Apol 90' (DRC-1; 90'; concentration 10): 54% | % inhibition Apol 90' (DRC-1; 90'; concentration 20): 73% | % inhibition Apol 90' (DRC-1; 90'; concentration 40): 72% | % inhibition Apol 90' (DRC-1; 90'; concentration 80): 63% | % inhibition apPOL 180' (DRC-1; 180'; concentration 2.5): -3.58% | % inhibition apPOL 180' (DRC-1; 180'; concentration 5): 1.16% | % inhibition apPOL 180' (DRC-1; 180'; concentration 10): 38% | % inhibition apPOL 180' (DRC-1; 180'; concentration 20): 59% | % inhibition apPOL 180' (DRC-1; 180'; concentration 40): 58% | % inhibition apPOL 180' (DRC-1; 180'; concentration 80): 49% | % inhibition Apo pol 5' (DRC-2, 5', concentration 2.5): 6% | % inhibition Apo pol 5' (DRC-2, 5', concentration 5): 26% | % inhibition Apo pol 5' (DRC-2, 5', concentration 10): 48% | % inhibition Apo pol 5' (DRC-2, 5', concentration 20): 51% | % inhibition Apo pol 5' (DRC-2, 5', concentration 40): 44% | % inhibition Apo pol 5' (DRC-2, 5', concentration 80): 21% | % inhibition Apol 40' (DRC-2, 40', concentration 2.5): 5.58% | % inhibition Apol 40' (DRC-2, 40', concentration 5): 30% | % inhibition Apol 40' (DRC-2, 40', concentration 10): 57% | % inhibition Apol 40' (DRC-2, 40', concentration 20): 64% | % inhibition Apol 40' (DRC-2, 40', concentration 40): 61% | % inhibition Apol 40' (DRC-2, 40', concentration 80): 44% | % inhibition ApPOL 90' (DRC-2, 90', concentration 2.5): 5% | % inhibition ApPOL 90' (DRC-2, 90', concentration 5): 28% | % inhibition ApPOL 90' (DRC-2, 90', concentration 10): 57% | % inhibition ApPOL 90' (DRC-2, 90', concentration 20): 65% | % inhibition ApPOL 90' (DRC-2, 90', concentration 40): 62% | % inhibition ApPOL 90' (DRC-2, 90', concentration 80): 47% | % inhibition apPOL 180' (DRC-2, 180', concentration 2.5): 3% | % inhibition apPOL 180' (DRC-2, 180', concentration 5): 21% | % inhibition apPOL 180' (DRC-2, 180', concentration 10): 48% | % inhibition apPOL 180' (DRC-2, 180', concentration 20): 59% | % inhibition apPOL 180' (DRC-2, 180', concentration 40): 55% | % inhibition apPOL 180' (DRC-2, 180', concentration 80): 41% | % inhibition apPOL 180' (conc 5 (unit not given); 180'; DRC-2): 21% | % inhibition Apo pol 5' (conc 10 (unit not given); 5'; DRC-2): 48% | % inhibition Apol 40' (conc 10 (unit not given); 40'; DRC-2): 57% | % inhibition ApPOL 90' (conc 10 (unit not given); 90'; DRC-2): 57% | % inhibition apPOL 180' (conc 10 (unit not given); 180'; DRC-2): 48% | % inhibition apPOL 180' (conc 20 (unit not given); 180'; DRC-2): 59% | % inhibition apPOL 180' (conc 20 (unit not given); 180'; first dose-response set): 59% | % inhibition Apo pol 5' (conc 40 (unit not given); 5'; DRC-2): 44% | % inhibition Apo pol 5' (conc 80 (unit not given); 5'; DRC-2): 21% | % inhibition Apo pol 10' (conc 80 (unit not given); 10'; first dose-response set): 59% | % inhibition Apol 40' (conc 80 (unit not given); 40'; DRC-2): 44% | DNA Pol (primary screen hit value, DNA Pol (186 hits); 90 min, 10 µM): 40

C=CCOc1c(Br)cc(Br)cc1/C=C1\SC(=N)NC1=O [KU0051640]
DNA Pol ('DNA Pol' of the 186 hits list (screen value); 90 min, 10 µM): 26 | % inhibition Apo pol 10' (DRC-1; 10'; conc 2.5): 4.163% | % inhibition Apo pol 10' (DRC-1; 10'; conc 5): -1.099% | % inhibition Apo pol 10' (DRC-1; 10'; conc 10): 11.4088% | % inhibition Apo pol 10' (DRC-1; 10'; conc 20): 46.0852% | % inhibition Apo pol 10' (DRC-1; 10'; conc 40): 88.1194% | % inhibition Apo pol 10' (DRC-1; 10'; conc 80): 94.2659% | % inhibition Apol 90' (DRC-1; 90'; conc 2.5): 2.139% | % inhibition Apol 90' (DRC-1; 90'; conc 5): -4.076% | % inhibition Apol 90' (DRC-1; 90'; conc 10): 7.3276% | % inhibition Apol 90' (DRC-1; 90'; conc 20): 38.2187% | % inhibition Apol 90' (DRC-1; 90'; conc 40): 86.7215% | % inhibition Apol 90' (DRC-1; 90'; conc 80): 95.0722% | % inhibition apPOL 180' (DRC-1; 180'; conc 2.5): -0.2194% | % inhibition apPOL 180' (DRC-1; 180'; conc 5): -7.333% | % inhibition apPOL 180' (DRC-1; 180'; conc 10): 0.9345% | % inhibition apPOL 180' (DRC-1; 180'; conc 20): 26.8822% | % inhibition apPOL 180' (DRC-1; 180'; conc 40): 86.6627% | % inhibition apPOL 180' (DRC-1; 180'; conc 80): 95.6515% | % inhibition Apo pol 5' (DRC-2; 5'; conc 2.5): 11% | % inhibition Apo pol 5' (DRC-2; 5'; conc 5): 7% | % inhibition Apo pol 5' (DRC-2; 5'; conc 10): 20% | % inhibition Apo pol 5' (DRC-2; 5'; conc 20): 43% | % inhibition Apo pol 5' (DRC-2; 5'; conc 40): 54% | % inhibition Apo pol 5' (DRC-2; 5'; conc 80): 54% | % inhibition Apo pol 5' (DRC-2; 5'; concentration 5): 7% | % inhibition Apo pol 5' (DRC-2; 5'; concentration 40): 54% | % inhibition Apo pol 5' (DRC-2; 5'; concentration 80): 54% | % inhibition Apol 40' (DRC-2; 40'; conc 2.5): 12% | % inhibition Apol 40' (DRC-2; 40'; conc 5): 7% | % inhibition Apol 40' (DRC-2; 40'; conc 10): 24% | % inhibition Apol 40' (DRC-2; 40'; conc 20): 54% | % inhibition Apol 40' (DRC-2; 40'; conc 40): 72% | % inhibition Apol 40' (DRC-2; 40'; conc 80): 75% | % inhibition Apol 40' (DRC-2; 40'; concentration 2.5): 12% | % inhibition Apol 40' (DRC-2; 40'; concentration 5): 7% | % inhibition Apol 40' (DRC-2; 40'; concentration 20): 54% | % inhibition ApPOL 90' (DRC-2; 90'; conc 2.5): 12% | % inhibition ApPOL 90' (DRC-2; 90'; conc 5): 6.55% | % inhibition ApPOL 90' (DRC-2; 90'; conc 10): 23% | % inhibition ApPOL 90' (DRC-2; 90'; conc 20): 56% | % inhibition ApPOL 90' (DRC-2; 90'; conc 40): 76% | % inhibition ApPOL 90' (DRC-2; 90'; conc 80): 79% | % inhibition ApPOL 90' (DRC-2; 90'; concentration 2.5): 12% | % inhibition ApPOL 90' (DRC-2; 90'; concentration 40): 76% | % inhibition apPOL 180' (DRC-2; 180'; conc 2.5): 9% | % inhibition apPOL 180' (DRC-2; 180'; conc 5): 4% | % inhibition apPOL 180' (DRC-2; 180'; conc 10): 17% | % inhibition apPOL 180' (DRC-2; 180'; conc 20): 49% | % inhibition apPOL 180' (DRC-2; 180'; conc 40): 76% | % inhibition apPOL 180' (DRC-2; 180'; conc 80): 81% | % inhibition apPOL 180' (DRC-2; 180'; concentration 40): 76% | DNA Pol (primary screen value, "DNA Pol"; 90 min, 10 µM): 26

Cc1ccc(NC(=O)Cn2ccc3c(=O)[nH]ccc32)cc1 [Molecule 50]
IC50 (supplemental file 2, sheet IC50 nontoxic compounds; Pf-apPOL): 13.7 µM
